The target in one test is Beta-1 adrenergic receptor (Homo sapiens, UniProt P08588). The experiment in a line: DRUGMATRIX: Adrenergic beta1 radioligand binding (ligand: [125I] Cyanopindolol). Type of test: cell membranes, CHO-K1, Membrane. The note with it: cho-k1; Not Active = under 50% inhibition at 10 µM.
Beta-1 adrenergic receptor, sequence (P08588 whole entry): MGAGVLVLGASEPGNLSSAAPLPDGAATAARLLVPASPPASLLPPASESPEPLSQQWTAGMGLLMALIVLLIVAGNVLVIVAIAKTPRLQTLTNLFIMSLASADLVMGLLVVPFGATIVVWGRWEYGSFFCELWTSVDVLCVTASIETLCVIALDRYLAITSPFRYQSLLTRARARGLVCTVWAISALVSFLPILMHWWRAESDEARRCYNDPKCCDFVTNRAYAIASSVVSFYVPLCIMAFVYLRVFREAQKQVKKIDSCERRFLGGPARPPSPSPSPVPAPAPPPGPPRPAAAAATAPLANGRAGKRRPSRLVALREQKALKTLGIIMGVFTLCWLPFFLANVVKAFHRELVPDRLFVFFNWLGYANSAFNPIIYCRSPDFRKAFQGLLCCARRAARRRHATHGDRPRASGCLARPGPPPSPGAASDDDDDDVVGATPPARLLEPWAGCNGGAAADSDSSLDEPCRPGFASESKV
D(3) dopamine receptor, sequence (P35462 whole entry): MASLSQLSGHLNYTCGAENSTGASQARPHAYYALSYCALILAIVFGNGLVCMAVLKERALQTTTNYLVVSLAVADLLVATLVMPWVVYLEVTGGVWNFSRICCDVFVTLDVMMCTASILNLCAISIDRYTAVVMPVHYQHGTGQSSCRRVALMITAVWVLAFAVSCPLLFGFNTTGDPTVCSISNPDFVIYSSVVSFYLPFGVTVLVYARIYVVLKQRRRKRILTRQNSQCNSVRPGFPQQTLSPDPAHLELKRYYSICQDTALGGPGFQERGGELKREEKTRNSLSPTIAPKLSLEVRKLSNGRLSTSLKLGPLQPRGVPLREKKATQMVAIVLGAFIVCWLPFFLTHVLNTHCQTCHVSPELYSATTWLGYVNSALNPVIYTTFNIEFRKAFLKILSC
As for `Nn1nnc2ccccc21`, the IC50 result is given as “Not Active”.

On to `CC[C@]1(O)CC[C@H]2[C@@H]3CCC4=CCCC[C@@H]4[C@H]3CC[C@@]21C`, for which the IC50 entry was “Not Active”.

For `N[C@@H](Cc1ccc(F)cc1)C(=O)O`, the IC50 entry is listed as “Not Active”.

For the compound `CCOC(=O)[C@H](CCc1ccccc1)N[C@@H](C)C(=O)N1Cc2ccccc2C[C@H]1C(=O)O`, the IC50 entry is on record as “Not Active”.

`O=C(c1ccccc1Cl)N1CCC(Cc2ccccc2)CC1`: the IC50 entry was “Not Active”.

As to `CCOC(=O)[C@H](CCc1ccccc1)N[C@@H](C)C(=O)N1CCC[C@H]1C(=O)O`, the IC50 entry was “Not Active”.

Another test has as its target D(3) dopamine receptor (Homo sapiens, UniProt P35462). The experiment in a line: DRUGMATRIX: Dopamine D3 radioligand binding (ligand: [3H] Spiperone). Type of test: cell membranes, CHO, Membrane. The conditions noted are these: cho.
Consider `Nn1nnc2ccccc21`, for which the IC50 result is reported as “Not Active”.

For the compound `CC[C@]1(O)CC[C@H]2[C@@H]3CCC4=CCCC[C@@H]4[C@H]3CC[C@@]21C`, the IC50 entry is “Not Active”.

Take `N[C@@H](Cc1ccc(F)cc1)C(=O)O`: the IC50 entry is recorded as “Not Active”.

As to `CCOC(=O)[C@H](CCc1ccccc1)N[C@@H](C)C(=O)N1Cc2ccccc2C[C@H]1C(=O)O`, the IC50 entry is recorded as “Not Active”.

As for `O=C(c1ccccc1Cl)N1CCC(Cc2ccccc2)CC1`, the IC50 entry is recorded as “Not Active”.

`CCOC(=O)[C@H](CCc1ccccc1)N[C@@H](C)C(=O)N1CCC[C@H]1C(=O)O`: the IC50 entry is reported as “Not Active”.

The target in the next test is T1, Muscarinic acetylcholine receptor M5 (Homo sapiens, UniProt P08912). Note: in other assays of this panel Not Active means under 50% inhibition at 10 µM.
T1 sequence (P08912 whole entry): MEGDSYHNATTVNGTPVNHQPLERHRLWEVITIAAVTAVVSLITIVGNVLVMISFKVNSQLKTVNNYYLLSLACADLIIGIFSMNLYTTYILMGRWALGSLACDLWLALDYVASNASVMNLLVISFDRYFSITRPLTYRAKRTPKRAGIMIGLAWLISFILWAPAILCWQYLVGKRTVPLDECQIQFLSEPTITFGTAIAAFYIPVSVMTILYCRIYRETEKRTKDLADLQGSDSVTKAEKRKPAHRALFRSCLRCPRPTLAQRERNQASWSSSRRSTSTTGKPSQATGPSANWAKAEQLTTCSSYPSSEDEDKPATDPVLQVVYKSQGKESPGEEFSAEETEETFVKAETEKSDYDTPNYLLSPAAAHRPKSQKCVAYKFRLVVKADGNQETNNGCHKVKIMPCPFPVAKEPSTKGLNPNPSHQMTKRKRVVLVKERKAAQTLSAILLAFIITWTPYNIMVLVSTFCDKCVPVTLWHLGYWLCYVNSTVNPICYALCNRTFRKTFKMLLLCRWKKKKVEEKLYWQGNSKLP
Experiment: not given
The conditions noted are these: cho-k1. Type of test: cell membranes, Membrane.
As to `Nn1nnc2ccccc21`, the IC50 entry is listed as “Not Active”.

`CC[C@]1(O)CC[C@H]2[C@@H]3CCC4=CCCC[C@@H]4[C@H]3CC[C@@]21C`: the IC50 entry is listed as “Not Active”.

Regarding `N[C@@H](Cc1ccc(F)cc1)C(=O)O`, the IC50 entry is on record as “Not Active”.

As for `CCOC(=O)[C@H](CCc1ccccc1)N[C@@H](C)C(=O)N1Cc2ccccc2C[C@H]1C(=O)O`, the IC50 result was “Not Active”.

Regarding `O=C(c1ccccc1Cl)N1CCC(Cc2ccccc2)CC1`, the IC50 result is recorded as “Not Active”.

As for `CCOC(=O)[C@H](CCc1ccccc1)N[C@@H](C)C(=O)N1CCC[C@H]1C(=O)O`, the IC50 entry is on record as “Not Active”.

The next test deals with T2, Alpha-1B adrenergic receptor (Rattus norvegicus, UniProt P15823).
T2 sequence (P15823 whole entry): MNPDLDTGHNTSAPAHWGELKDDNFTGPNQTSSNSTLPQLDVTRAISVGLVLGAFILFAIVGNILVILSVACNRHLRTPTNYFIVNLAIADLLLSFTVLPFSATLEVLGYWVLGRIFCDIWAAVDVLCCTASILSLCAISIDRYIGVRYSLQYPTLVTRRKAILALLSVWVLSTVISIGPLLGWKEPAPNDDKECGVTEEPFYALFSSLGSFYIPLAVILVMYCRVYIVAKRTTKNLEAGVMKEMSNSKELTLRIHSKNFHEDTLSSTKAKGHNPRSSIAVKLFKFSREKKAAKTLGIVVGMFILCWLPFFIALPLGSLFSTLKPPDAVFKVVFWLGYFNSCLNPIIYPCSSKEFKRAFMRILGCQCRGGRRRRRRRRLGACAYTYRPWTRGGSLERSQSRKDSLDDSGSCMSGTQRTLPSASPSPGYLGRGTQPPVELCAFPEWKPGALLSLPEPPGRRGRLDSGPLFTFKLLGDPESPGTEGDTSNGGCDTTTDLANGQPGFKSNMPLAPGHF
Briefly: DRUGMATRIX: Alpha-1B adrenergic receptor radioligand binding (ligand: prazosin). The test is classed as cell membranes, Wistar, Liver, Membrane. The note with it: Not Active = under 50% inhibition at 10 µM.
Turning to `Nn1nnc2ccccc21`, the IC50 entry is on record as “Not Active”.

For the compound `CC[C@]1(O)CC[C@H]2[C@@H]3CCC4=CCCC[C@@H]4[C@H]3CC[C@@]21C`, the IC50 entry is “Not Active”.

As to `N[C@@H](Cc1ccc(F)cc1)C(=O)O`, the IC50 entry is listed as “Not Active”.

`CCOC(=O)[C@H](CCc1ccccc1)N[C@@H](C)C(=O)N1Cc2ccccc2C[C@H]1C(=O)O`: the IC50 result is “Not Active”.

For the compound `O=C(c1ccccc1Cl)N1CCC(Cc2ccccc2)CC1`, the IC50 entry is “Not Active”.

As for `CCOC(=O)[C@H](CCc1ccccc1)N[C@@H](C)C(=O)N1CCC[C@H]1C(=O)O`, the IC50 result is reported as “Not Active”.

A further test has as its target T3, Polyunsaturated fatty acid lipoxygenase ALOX15 (Oryctolagus cuniculus, UniProt P12530).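 Note: inhibition of 15-lipoxygenase enzyme activity measured with linoleic acid as the substrate; in other assays of this panel Not Active means under 50% inhibition at 10 µM.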
T3 sequence (P12530 whole entry): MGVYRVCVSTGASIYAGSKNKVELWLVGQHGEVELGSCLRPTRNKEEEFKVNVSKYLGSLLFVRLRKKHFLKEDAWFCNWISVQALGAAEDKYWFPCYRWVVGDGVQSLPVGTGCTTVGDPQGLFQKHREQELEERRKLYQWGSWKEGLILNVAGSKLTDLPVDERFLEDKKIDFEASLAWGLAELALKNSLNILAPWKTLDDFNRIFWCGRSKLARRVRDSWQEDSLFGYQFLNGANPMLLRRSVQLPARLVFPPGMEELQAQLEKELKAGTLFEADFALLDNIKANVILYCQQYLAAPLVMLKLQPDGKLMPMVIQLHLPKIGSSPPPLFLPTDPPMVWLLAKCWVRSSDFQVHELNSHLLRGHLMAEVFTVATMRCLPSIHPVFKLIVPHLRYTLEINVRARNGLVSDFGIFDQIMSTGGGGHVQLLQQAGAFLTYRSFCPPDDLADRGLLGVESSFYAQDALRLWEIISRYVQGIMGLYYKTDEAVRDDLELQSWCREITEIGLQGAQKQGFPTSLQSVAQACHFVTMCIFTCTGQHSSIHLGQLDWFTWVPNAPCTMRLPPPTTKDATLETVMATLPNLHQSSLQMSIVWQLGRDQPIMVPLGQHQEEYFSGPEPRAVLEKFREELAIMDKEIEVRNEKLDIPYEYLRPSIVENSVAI
Briefly: biochemical. The note with it: reticulocytes. Type of test: tissue-based, Reticulocytes.
On to `Nn1nnc2ccccc21`, for which the IC50 entry is listed as “Not Active”.

As to `CC[C@]1(O)CC[C@H]2[C@@H]3CCC4=CCCC[C@@H]4[C@H]3CC[C@@]21C`, the IC50 entry is on record as “Not Active”.

As to `N[C@@H](Cc1ccc(F)cc1)C(=O)O`, the IC50 entry was “Not Active”.

For the compound `CCOC(=O)[C@H](CCc1ccccc1)N[C@@H](C)C(=O)N1Cc2ccccc2C[C@H]1C(=O)O`, the IC50 result is recorded as “Not Active”.

For `O=C(c1ccccc1Cl)N1CCC(Cc2ccccc2)CC1`, the IC50 entry is “Not Active”.

As for `CCOC(=O)[C@H](CCc1ccccc1)N[C@@H](C)C(=O)N1CCC[C@H]1C(=O)O`, the IC50 result was “Not Active”.

The target of another test is Matrix metalloproteinase-9 (Homo sapiens, UniProt P14780). The experiment in a line: biochemical. Type of test: cell-based.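 Note: inhibition of isolated MMP-9 enzyme activity toward a synthetic peptide substrate, from the DrugMatrix protease screening panel; in other assays of this panel Not Active means under 50% inhibition at 10 µM.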
Matrix metalloproteinase-9, sequence (P14780 whole entry): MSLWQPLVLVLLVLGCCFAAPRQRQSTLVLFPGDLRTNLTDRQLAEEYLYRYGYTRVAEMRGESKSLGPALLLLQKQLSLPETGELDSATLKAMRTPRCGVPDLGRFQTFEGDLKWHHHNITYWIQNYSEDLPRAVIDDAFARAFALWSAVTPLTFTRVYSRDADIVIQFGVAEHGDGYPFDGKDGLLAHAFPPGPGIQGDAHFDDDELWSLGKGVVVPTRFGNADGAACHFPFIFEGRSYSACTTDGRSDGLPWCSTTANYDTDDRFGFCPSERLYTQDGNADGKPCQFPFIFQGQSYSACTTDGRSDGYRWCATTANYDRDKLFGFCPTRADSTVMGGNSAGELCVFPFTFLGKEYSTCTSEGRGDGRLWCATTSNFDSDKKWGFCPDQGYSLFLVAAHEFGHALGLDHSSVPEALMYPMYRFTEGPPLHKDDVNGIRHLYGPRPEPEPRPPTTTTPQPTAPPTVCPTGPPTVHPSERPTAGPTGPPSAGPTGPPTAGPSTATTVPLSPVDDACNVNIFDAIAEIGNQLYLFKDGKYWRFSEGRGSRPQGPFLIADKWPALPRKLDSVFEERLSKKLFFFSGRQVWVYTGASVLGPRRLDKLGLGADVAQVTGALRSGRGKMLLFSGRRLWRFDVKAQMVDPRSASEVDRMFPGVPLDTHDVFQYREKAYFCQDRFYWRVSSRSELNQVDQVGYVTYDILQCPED
Conditions: not given
On to `Nn1nnc2ccccc21`, for which the IC50 result is “Not Active”.

Take `CC[C@]1(O)CC[C@H]2[C@@H]3CCC4=CCCC[C@@H]4[C@H]3CC[C@@]21C`: the IC50 entry is listed as “Not Active”.

With `N[C@@H](Cc1ccc(F)cc1)C(=O)O`, the IC50 entry is “Not Active”.

As for `CCOC(=O)[C@H](CCc1ccccc1)N[C@@H](C)C(=O)N1Cc2ccccc2C[C@H]1C(=O)O`, the IC50 result is given as “Not Active”.

With `O=C(c1ccccc1Cl)N1CCC(Cc2ccccc2)CC1`, the IC50 result is given as “Not Active”.

`CCOC(=O)[C@H](CCc1ccccc1)N[C@@H](C)C(=O)N1CCC[C@H]1C(=O)O`: the IC50 entry is on record as “Not Active”.

The values above are taken from ChEMBL document CHEMBL1909046, “DrugMatrix in vitro pharmacology data”.
